Assay [1] deals with T1, human PMNL LTB4 receptor (Homo sapiens, UniProt Q15722).
T1 construct: endogenous in cells; host or cells: human polymorphonuclear leukocytes (PMNL), intact cells
In words: Binding affinity of 3H-LTB4 antagonist to human PMNL LTB4 receptor (inhibition of specific 3H-LTB4 binding). As to conditions: 1 nM 3H-LTB4, human PMNLs, 4° C., 20 min. The protocol:
Human PMNLS (1×10^7 cells) were incubated with 1 nM ^3 H-LTB4 in Hanks balanced salt solution (1 ml) at 4° C. for 20 min. in the presence or absence of increasing concentrations of unlabeled LTB4 or various compounds. Free ^3 H-LTB4 was separated from PMNLs-bound ligands by vacuum filteration through Whatman GF/B or C glass fiber filters. The filters were then washed rapidly 4 times with 2.5 ml of the ice-cold phosphate buffered saline. The radioactivity retained in the filter was determined by liquid scintillation counting. Specific binding was defined as the difference between total binding and binding in the presence of 3 μM LTB4 (nonspecific binding). The inhibitory effect of specific ^3 H-LTB4 binding was calculated from the following equation.
The percentage of inhibition (%)=100-(B1 /B0 ×100)
B1 : specific ^3 H-LTB4 binding in presence of antagonist
B0 : specific ^3 H-LTB4 binding in absence of antagonist

For assay [2], the system named is Human PMNLs. In words: Inhibition of human PMNLs aggregation (LTB4-induced). Type of assay: cell-based. To be noted: PMNL, LTB4 10^-8 M solution, 3 min preincubation at 37° C., pH 7.4. How it is done:
ii) Inhibition of Human PMNLs aggregation
The purified human PMNLs were suspended in Hank's-0.5% BSA medium (pH 7.4) at 1×10^7 cells/ml. The PMNLs suspentions (200 μl) were preincubated with varying concentrations of tasted compounds for 3 min at 37° C. prior to the addition of 10^-8 M solution ([…]) of LTB4 in Hank's solution. PMNLs aggregation in vitro was performed with a multichannel platelet aggregometer. Aggregation was detected as change in light transmission with an aggregometer.

One may read the IC50 as the concentration at which inhibition is half-maximal. Read a high IC50 as weaker potency.

T1 sequence (Q15722 whole entry): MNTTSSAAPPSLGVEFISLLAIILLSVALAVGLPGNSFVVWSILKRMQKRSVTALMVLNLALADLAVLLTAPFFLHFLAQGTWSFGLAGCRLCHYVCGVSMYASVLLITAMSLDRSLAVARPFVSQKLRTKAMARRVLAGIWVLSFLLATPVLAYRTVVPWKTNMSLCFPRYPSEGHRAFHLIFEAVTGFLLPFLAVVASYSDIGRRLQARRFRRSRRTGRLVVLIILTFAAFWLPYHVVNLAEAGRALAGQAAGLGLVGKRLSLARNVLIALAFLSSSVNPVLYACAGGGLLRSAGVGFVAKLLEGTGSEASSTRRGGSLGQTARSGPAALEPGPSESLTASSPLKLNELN

Take `COc1ccc(/C=C/CCCCOc2ccc(NC(=O)CCCC(=O)N(C)C)cc2CCC(=O)O)cc1` [1 (a), 3-[1-[6-(4-methoxyphenyl)hex-5E-enyl]oxy-4-(4-dimethylaminocarbonylbutanamido)benzen-2-yl]propionic acid]: the half-maximal inhibitory concentration (IC50) was determined as 45 nM in assay [1] and 3600 nM in assay [2].
On the same counts, the results for `COc1ccc(/C=C/CCCCOc2ccc(NC(=O)CCCC(=O)Nc3nccs3)cc2CCC(=O)O)cc1` [1 (o), 3-[1-[6-(4-methoxyphenyl)hex-5E-enyl]oxy-4-[4-(2-thiazolyl)aminocarbonylbutanamido]benzen-2-yl]propionic acid] are 20 nM and 3000 nM.
In assay [1], `COc1ccc(/C=C/CCCCOc2ccc(N3C(=O)CCCS3(=O)=O)cc2CCC(=O)O)cc1` [Example 12, 3-[1-[6-(4-methoxyphenyl)hex-5E-enyl]oxy-4-(perhydro-1,2-thiazin-1,1,3-trione-2-yl]benzen-2-yl]propionic acid] gave a concentration for half-maximal inhibition (IC50) of 7 nM.
Same read-out and setting: in the case of `CCCCCCCCC(O)/C=C/CCCCOc1ccc(N2C(=O)CCCS2(=O)=O)cc1CCC(=O)O` (stereo not drawn) [Example 13, 3-[1-(5E-7-hydroxy-n-pentadecenyl)oxy-4-(perhydro-1,2-thiazin-1,1,3-trione-2-yl)benzen-2-yl]propionic acid] it was 45 nM.
Regarding `COc1ccc(/C=C/CCCCOc2ccc(OCCCCC(=O)O)cc2CCC(=O)O)cc1` [Example 14, 3-[1-[6-(4-methoxyphenyl)hex-5E-enyl]oxy-4-(4-carboxylbutoxy)benzen-2-yl]propionic acid], in assay [1], the IC50 was 70 nM.
Still for that read-out and setting: the value for `COc1ccc(/C=C/CCCCOc2ccc(CCCCC(=O)N(C)C)cc2CCC(=O)O)cc1` [Example 18, 3-[1-[6-(4-methoxyphenyl)hex-5E-enyl]oxy-4-(4-dimethylaminocarbonylbutyl)benzen-2-yl]propionic acid] was 25 nM.
Regarding `COc1ccc(/C=C/CCCCOc2ccc(C(=O)CCCC(=O)N(C)C)cc2CCC(=O)O)cc1` [Example 19, 3-[1-[6-(4-methoxyphenyl)hex-5E-enyl]oxy-4-(1-oxo-4-dimethylaminocarbonylbutyl)benzen-2-yl]propionic acid], in assay [1], the IC50 was determined as 30 nM.
Still for that read-out and setting: the value for `CCCCCCCCC(O)/C=C/CCCCOc1cccc(OCCCCC(=O)N(C)C)c1CCC(=O)O` (stereo not drawn) [Example 29, 3-[1-(5E-7-hydroxypentadecenyl)oxy-3-(4-dimethylaminocarbonylbutyl)oxybenzen-2-yl]propionic acid] was 18 nM; that for `COc1ccc(/C=C/CCCCOc2cccc(CCCCCC(=O)O)c2CCC(=O)O)cc1` [Example 33, 3-[1-[6-(4-methoxyphenyl)hex-5E-enyl]oxy-3-(5-carboxylpentyl)benzen-2-yl]propionic acid] was 15 nM.
Same read-out and setting: the value for `COc1ccc(/C=C/CCCCOc2cccc(N(S(C)(=O)=O)S(C)(=O)=O)c2CCC(=O)O)cc1` [Example 35, 3-[1-[6-(4-methoxyphenyl)hex-5E-enyl]oxy-3-dimesylaminobenzen-2-yl]propionic acid] was 200 nM.
With `COc1ccc(/C=C/CCCCOc2cccc(N3C(=O)CCCS3(=O)=O)c2CCC(=O)O)cc1` [Example 36, 3-[1-[6-(4-methoxyphenyl)hex-5E-enyl]oxy-3-(perhydro-1,2-thiazin-1,1,3-trione-2-yl)benzen-2-yl]propionic acid], the 50% inhibitory concentration (IC50) in assay [1] is 150 nM.
The same measure, in the same setting: the value for `COc1ccc(/C=C/CCCCOc2cccc(C(=O)CCCCC(=O)N(C)C)c2CCC(=O)O)cc1` [Example 39, 3-[1-[6-(4-methoxyphenyl)hex-5E-enyl]oxy-3-(1-oxo-5-dimethylaminocarbonylpentyl)benzen-2-yl]propionic acid] was 23 nM; that for `COc1ccc(/C=C/CCCCOc2cccc(C(O)CCCCC(=O)N(C)C)c2CCC(=O)O)cc1` (stereo not drawn) [Example 40, 3-[1-[6-(4-methoxyphenyl)hex-5E-enyl]oxy-3-(1-hydroxy-5-dimethylaminocarbonylpentyl)benzen-2-yl]propionic acid] was 170 nM.

(Values after patent US5256686A, “Phenylalkan(en)oic acid” (Ono Pharmaceutical Co., Ltd., priority 1989, dated 1993).)
